pIC50: −log10 of the molar value. Activity calls are given as the source filed them. The calls are words filed in the database; no cut-off is given here.
Columns and labels:
[1] = Stability in human liver microsome assessed as half life at 1 uM measured for 60 mins by LC-MS/MS analysis; format: ADME; settings: liver microsomes
[2] = Selectivity index, ratio of IC50 for human leukocytes cells to IC50 for human Jurkat cells; format: functional
Histone deacetylase 1 [3] = target: T1, Histone deacetylase 1 (Homo sapiens, UniProt Q13547); test: Inhibition of HDAC1 in human NAMALVA cells assessed as increase in acetyl-alpha-tubulin level at IC50 incubated for 48 hrs by Western blot analysis; format: cell-based
U-937 = test: Induction of apoptosis in human U-937 cells at IC50 measured after 48 hrs by flow cytometry; format: functional, cell-based
[4] = Selectivity index, ratio of IC50 for human HS5 cells to IC50 for human Jurkat cells; format: functional
Histone deacetylase 1 [5] = target: T1, Histone deacetylase 1; test: Inhibition of HDAC1 in human U-937 cells assessed as increase in acetyl-histone H3 level at IC50 incubated for 48 hrs by Western blot analysis; format: cell-based
[6] = target: T2, Protein deacetylase HDAC6 (Homo sapiens) (UniProt Q9UBN7); test: Inhibition of HDAC6 in human U-937 cells assessed as increase in acetyl-histone H3 level at IC50 incubated for 48 hrs by Western blot analysis; format: cell-based
T2 sequence (whole entry): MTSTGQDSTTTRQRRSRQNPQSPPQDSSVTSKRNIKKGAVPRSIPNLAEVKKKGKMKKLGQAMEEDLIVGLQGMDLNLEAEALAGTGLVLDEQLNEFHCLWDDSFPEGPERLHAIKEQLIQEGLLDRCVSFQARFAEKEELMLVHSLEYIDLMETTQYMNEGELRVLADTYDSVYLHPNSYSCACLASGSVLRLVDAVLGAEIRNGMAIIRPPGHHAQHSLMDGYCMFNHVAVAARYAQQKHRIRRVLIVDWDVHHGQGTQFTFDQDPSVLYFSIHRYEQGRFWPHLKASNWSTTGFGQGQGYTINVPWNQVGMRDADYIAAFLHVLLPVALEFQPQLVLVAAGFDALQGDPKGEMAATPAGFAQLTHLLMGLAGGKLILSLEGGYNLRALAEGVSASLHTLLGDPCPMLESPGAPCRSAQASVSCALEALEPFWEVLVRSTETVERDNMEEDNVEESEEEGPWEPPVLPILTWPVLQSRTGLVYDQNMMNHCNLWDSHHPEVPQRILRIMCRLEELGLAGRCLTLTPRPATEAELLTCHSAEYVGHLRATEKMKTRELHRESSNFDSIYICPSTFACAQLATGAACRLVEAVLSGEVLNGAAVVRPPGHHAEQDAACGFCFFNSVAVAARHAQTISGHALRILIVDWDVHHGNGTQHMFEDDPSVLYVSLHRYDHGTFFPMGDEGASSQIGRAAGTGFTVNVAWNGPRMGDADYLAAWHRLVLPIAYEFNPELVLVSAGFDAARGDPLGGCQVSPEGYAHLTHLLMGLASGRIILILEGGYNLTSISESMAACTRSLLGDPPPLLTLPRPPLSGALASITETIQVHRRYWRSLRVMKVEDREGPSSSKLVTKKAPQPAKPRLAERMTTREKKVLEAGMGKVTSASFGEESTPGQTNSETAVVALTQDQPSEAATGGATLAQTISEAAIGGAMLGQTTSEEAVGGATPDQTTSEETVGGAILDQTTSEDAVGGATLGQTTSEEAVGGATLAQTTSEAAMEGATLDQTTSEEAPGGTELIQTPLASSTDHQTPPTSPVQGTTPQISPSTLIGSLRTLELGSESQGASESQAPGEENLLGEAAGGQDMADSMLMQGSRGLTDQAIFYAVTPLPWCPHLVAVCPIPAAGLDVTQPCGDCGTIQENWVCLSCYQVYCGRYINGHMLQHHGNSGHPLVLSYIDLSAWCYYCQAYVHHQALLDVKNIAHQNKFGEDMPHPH

[7] = Stability in mouse liver microsome assessed as intrinsic clearance at 1 uM measured for 60 mins by LC-MS/MS analysis; format: ADME; settings: liver microsomes, read-out: CLH
[8] = Stability in mouse liver microsome assessed as half life at 1 uM measured for 60 mins by LC-MS/MS analysis; format: ADME; settings: liver microsomes
[9] = Selectivity index, ratio of IC50 for human HS5 cells to IC50 for human NAMALVA cells; format: functional
CYP2D6 = CYP2D6 (Homo sapiens, UniProt P10635); test: Inhibition of CYP2D6 in liver microsomes (unknown origin) at 10 uM incubated for 10 mins relative to control; format: ADME, Microsome
[10] = Selectivity index, ratio of IC50 for human MCF7 cells to IC50 for human Jurkat cells; format: functional
[11] = Selectivity index, ratio of IC50 for human HCT-116 cells to IC50 for human Jurkat cells; format: functional
NAMALVA [12] = test: Induction of apoptosis in human NAMALVA cells at IC50 measured after 48 hrs by flow cytometry; format: functional, cell-based
Histone deacetylase 1 [13] = target: T1, Histone deacetylase 1; test: Inhibition of HDAC1 in human Jurkat cells assessed as increase in acetyl-histone H3 level at IC50 incubated for 48 hrs by Western blot analysis; format: cell-based
Jurkat = test: cells; settings: Homo sapiens
NAMALVA [14] = test: Inhibition of cell proliferation of human NAMALVA cells assessed as reduction in Ki-67 expression at IC50 measured after 48 hrs by flow cytometry; format: functional, cell-based
HCT-116 = test: cells; settings: Homo sapiens
[15] = Stability in human liver microsome assessed as intrinsic clearance at 1 uM measured for 60 mins by LC-MS/MS analysis; format: ADME; settings: liver microsomes, read-out: CLH
[16] = target: T2, Protein deacetylase HDAC6 (Homo sapiens); test: Inhibition of HDAC6 in human NAMALVA cells assessed as increase in acetyl-histone H3 level at IC50 incubated for 48 hrs by Western blot analysis; format: cell-based
[17] = target: T3, Protein deacetylase HDAC6 (Homo sapiens, UniProt Q9UBN7); test: Inhibition of full-length recombinant human HDAC6 expressed in baculovirus infected Sf9 cells using RHKK(Ac)AMC as substrate preincubated for 5 to 10 mins followed by substrate addition measured after 2 hrs by fluorescence based assay
T3 sequence (Q9UBN7 whole entry): T2 sequence (whole entry)

[18] = target: T2, Protein deacetylase HDAC6 (Homo sapiens); test: Inhibition of HDAC6 in human U-937 cells assessed as increase in acetyl-alpha-tubulin level at IC50 incubated for 48 hrs by Western blot analysis; format: cell-based
Histone deacetylase 1 [19] = target: T1, Histone deacetylase 1; test: Inhibition of full-length recombinant human HDAC1 expressed in baculovirus infected Sf9 cells using RHKK(Ac)AMC as substrate preincubated for 5 to 10 mins followed by substrate addition measured after 2 hrs by fluorescence based assay
[20] = Selectivity index, ratio of IC50 for human leukocytes cells to IC50 for human NAMALVA cells; format: functional
[21] = Selectivity index, ratio of IC50 for human MCF7 cells to IC50 for human NAMALVA cells; format: functional
Histone deacetylase 1 [22] = target: T1, Histone deacetylase 1; test: Inhibition of HDAC1 in human NAMALVA cells assessed as increase in acetyl-histone H3 level at IC50 incubated for 48 hrs by Western blot analysis; format: cell-based
NAMALVA [23] = test: Potency index, ratio of Vorinostat IC50 to test compound IC50 for human NAMALVA cells assessed as cell growth inhibition incubated for 24 to 72 hrs by MTT assay; format: functional; settings: time 24-72 hrs

T1 sequence (Q13547 whole entry): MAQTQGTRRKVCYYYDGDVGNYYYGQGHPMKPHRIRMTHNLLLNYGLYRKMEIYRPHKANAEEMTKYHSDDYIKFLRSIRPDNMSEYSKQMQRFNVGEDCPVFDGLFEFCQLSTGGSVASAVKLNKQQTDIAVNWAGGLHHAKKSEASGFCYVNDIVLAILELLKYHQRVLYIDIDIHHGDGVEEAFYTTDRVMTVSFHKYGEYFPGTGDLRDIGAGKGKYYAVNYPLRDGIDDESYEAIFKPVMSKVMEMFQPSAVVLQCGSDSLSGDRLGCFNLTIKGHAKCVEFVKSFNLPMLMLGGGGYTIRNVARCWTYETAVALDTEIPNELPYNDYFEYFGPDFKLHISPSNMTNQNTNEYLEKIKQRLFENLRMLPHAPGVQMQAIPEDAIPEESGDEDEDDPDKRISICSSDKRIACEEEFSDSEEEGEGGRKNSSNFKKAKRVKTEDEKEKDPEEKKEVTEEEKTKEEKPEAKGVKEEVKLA
Chain of CYP2D6 (P10635 whole entry): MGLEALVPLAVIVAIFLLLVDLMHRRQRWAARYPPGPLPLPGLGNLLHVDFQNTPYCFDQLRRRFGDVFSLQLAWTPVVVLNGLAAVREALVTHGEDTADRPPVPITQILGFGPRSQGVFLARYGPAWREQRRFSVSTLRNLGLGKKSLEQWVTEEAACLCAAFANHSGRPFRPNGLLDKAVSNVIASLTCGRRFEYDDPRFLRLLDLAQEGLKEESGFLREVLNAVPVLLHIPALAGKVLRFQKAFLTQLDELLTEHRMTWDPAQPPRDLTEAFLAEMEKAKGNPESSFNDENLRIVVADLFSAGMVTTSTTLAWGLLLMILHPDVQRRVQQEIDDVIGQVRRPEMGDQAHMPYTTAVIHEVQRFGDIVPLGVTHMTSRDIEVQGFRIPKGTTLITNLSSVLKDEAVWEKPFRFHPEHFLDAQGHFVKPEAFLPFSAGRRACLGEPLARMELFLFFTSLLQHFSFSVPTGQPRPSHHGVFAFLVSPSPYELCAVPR

O=C(NO)c1ccc(Cn2cnc3c(Nc4ccc(F)c(Cl)c4)ncnc32)cc1
half-life at 1 µM [1]: > 120 min
Ratio IC50 [2]: >=100
inhibition (Histone deacetylase 1 [3]): Active
Activity (U-937): Active
Ratio IC50 [4]: >=100
inhibition (Histone deacetylase 1 [5]): Active
inhibition [6]: Active
microsomal CLint at 1 µM [7]: 20 µL/min/mg
half-life at 1 µM [8]: 35 min
Ratio IC50 [9]: >=100
inhibition at 10 min, 10 µM (CYP2D6): 10%
Ratio IC50 [10]: 83
Ratio IC50 [11]: 83
Activity (NAMALVA [12]): Active
inhibition (Histone deacetylase 1 [13]): Active
pIC50 (Jurkat): 7.70
inhibition (NAMALVA [14]): Active
pIC50 (HCT-116): 5.03
microsomal CLint at 1 µM [15]: < 6 µL/min/mg
inhibition [16]: Active
pIC50 [17]: 6.47
inhibition [18]: Active
pIC50 (Histone deacetylase 1 [19]): 6.72
Ratio IC50 [20]: >=100
Ratio IC50 [21]: 83
inhibition (Histone deacetylase 1 [22]): Active
Ratio IC50 (NAMALVA [23]): <=10

COc1ccc(Nc2ncnc3c2ncn3Cc2ccc(C(=O)NO)cc2)cc1
half-life at 1 µM [1]: > 120 min
Ratio IC50 [2]: >=100
inhibition (Histone deacetylase 1 [3]): Active
Activity (U-937): Active
Ratio IC50 [4]: >=100
inhibition (Histone deacetylase 1 [5]): Active
inhibition [6]: Active
microsomal CLint at 1 µM [7]: 14 µL/min/mg
half-life at 1 µM [8]: 50 min
Ratio IC50 [9]: >=100
inhibition at 10 min, 10 µM (CYP2D6): 10%
Ratio IC50 [10]: 83
Ratio IC50 [11]: 83
Activity (NAMALVA [12]): Active
inhibition (Histone deacetylase 1 [13]): Active
pIC50 (Jurkat): 7.30
inhibition (NAMALVA [14]): Active
pIC50 (HCT-116): 5.08
microsomal CLint at 1 µM [15]: < 6 µL/min/mg
inhibition [16]: Active
pIC50 [17]: 6.63
inhibition [18]: Active
pIC50 (Histone deacetylase 1 [19]): 6.93
Ratio IC50 [20]: >=100
Ratio IC50 [21]: 83
inhibition (Histone deacetylase 1 [22]): Active
Ratio IC50 (NAMALVA [23]): <=10
